Where “and” joins values, the source holds several entries; their conditions need not be identical. Equal entries are not always repeated. Where two headings read alike, the source gives them in different places.
Assay type: physicochemical
Description: This therefore allows the use according to the invention of these mixture packs for plant protectant active substances which had previously shown to be “incompatible” in mixture with other active substances on or in a granule particle. Determining the “incompatibility” of individual active substances in an active substance mixture is effected by simply measuring the remaining residual amounts of active substance after a predetermined storage period. The reasons for this active substance “incompatibility” with other active substances may be based on a very wide range of factors. However, it poses a serious problem for formulation research, when active substance mixtures required by the market cannot be realized due to this problem. [table]

[1] = in Granule coformulation (2), prior art, n = 1
[2] = in Granule mixture (1), according to the invention, n = 3

| SMILES | Absolute content after 2 months' storage at 40° C. [1] [% by weight] | Absolute content at the beginning of the storage [1] [% by weight] | Percentage change after 2 months' storage at 40° C. [1] [%] | Absolute content after 2 months' storage at 40° C. [2] | Absolute content at the beginning of the storage [2] | Percentage change after 2 months' storage at 40° C. [2] | Degradation during storage (in words) | Change in content during storage (in words) (in granule mixture (according to the invention)) |
| --- | --- | --- | --- | --- | --- | --- | --- | --- |
| O=C(Nc1ccc(F)cc1F)c1cccnc1Oc1cccc(C(F)(F)F)c1 [Diflufenican, diflufenican] | 3.79 | 3.79 | 0.0 | 12.8 % by weight and 12.1 % by weight | 12.5 % by weight and 12.3 % by weight and 12.1 % by weight |  |  |  |
| CC(C)N(C(=O)COc1nnc(C(F)(F)F)s1)c1ccc(F)cc1 [Flufenacet, flufenacet] | 12.10 | 12.40 | −2.4 | 39.2 % by weight and 38.3 % by weight and 39.9 % by weight | 39.8 % by weight and 40.0 % by weight and 40.6 % by weight | −1.5% and −4.3% and −1.7% |  |  |
| COc1nc(C)nc(NC(=O)NS(=O)(=O)c2cc(I)ccc2C(=O)O)n1 [Iodosulfuron, iodosulfuron] | 0.039 | 0.135 | −71.0 | 0.367 % by weight and 0.360 % by weight and 0.382 % by weight | 0.330 % by weight and 0.312 % by weight and 0.378 % by weight |  | severe degradation | no appreciable change |
